Laboratory results as given in patent US20200247800A1, “SUBSTITUTED BICYCLIC HETEROCYCLIC COMPOUNDS AS NADPH OXIDASE INHIBITORS” (Glenmark Pharmaceuticals S.A., priority 2017, published 2020).

Target: T1, human NOX4 (Homo sapiens, UniProt Q9NPH5)
T1 construct: expressed in transfected cells; membrane fraction used
T1 sequence (Q9NPH5 1-578): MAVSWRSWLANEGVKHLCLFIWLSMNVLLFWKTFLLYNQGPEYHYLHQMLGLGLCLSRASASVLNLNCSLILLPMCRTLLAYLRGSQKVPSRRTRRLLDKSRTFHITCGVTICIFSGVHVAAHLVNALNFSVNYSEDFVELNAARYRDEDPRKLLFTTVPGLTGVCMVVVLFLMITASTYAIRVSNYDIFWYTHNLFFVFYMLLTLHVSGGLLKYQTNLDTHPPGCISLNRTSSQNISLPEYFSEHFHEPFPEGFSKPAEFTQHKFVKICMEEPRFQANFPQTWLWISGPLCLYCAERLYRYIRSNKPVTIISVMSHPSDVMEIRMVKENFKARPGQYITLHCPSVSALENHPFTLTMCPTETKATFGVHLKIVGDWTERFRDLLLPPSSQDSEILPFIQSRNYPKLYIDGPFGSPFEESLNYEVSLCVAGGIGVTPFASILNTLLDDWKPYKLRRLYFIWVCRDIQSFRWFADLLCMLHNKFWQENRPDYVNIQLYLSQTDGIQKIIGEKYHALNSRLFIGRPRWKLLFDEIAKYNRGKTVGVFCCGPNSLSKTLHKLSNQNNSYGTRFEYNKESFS
T1 sequence (P13498 1-195 partner): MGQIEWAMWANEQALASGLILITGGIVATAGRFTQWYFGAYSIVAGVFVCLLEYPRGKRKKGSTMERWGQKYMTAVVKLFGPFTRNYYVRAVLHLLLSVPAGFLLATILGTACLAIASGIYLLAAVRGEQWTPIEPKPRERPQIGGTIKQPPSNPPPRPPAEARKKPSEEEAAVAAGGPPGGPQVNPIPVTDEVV
Assay: Cell free membrane based in vitro NOX4 assay: H2O2 production by membranes expressing human NOX4, measured with Amplex Red
Format: biochemical
Conditions: for inhibition at 1 µM: 1.0 μM compound, read-out: Percentage inhibition at 1.0 μM; for inhibition at 10 µM: 10.0 μM compound, read-out: Percentage inhibition at 10.0 μM; for IC50: class symbols
In short: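 IC50 came from concentration-response curves fitted as % of the inhibitor-free maximum. H2O2 formation was monitored for 10 min via Amplex Red/HRP fluorescence (544/590 nm) after NADPH start. Membranes from a stable hNOX4/HEK line had 20 min exposure to inhibitor beforehand at pH 7.4.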

inhibition at 1 µM | inhibition at 10 µM | IC50 | SMILES
78.6% | 73% | > 0.15 µM | CCn1nc(C)c2c(=O)c(O)c(-c3ccc(F)c(C(F)(F)F)c3F)[nH]c21 [Example 116, 6-(2,4-Difluoro-3-(trifluoromethyl)phenyl)-1-ethyl-5-hydroxy-3-methyl-1H-pyrazolo[3,4-b]pyridin-4(7H)-one]
6.79% | 15.6% |  | Cn1nc(N2CCOCC2)c2c(=O)c(O)c(-c3c(F)cccc3F)[nH]c21 [Example 117, 6-(2,6-Difluorophenyl)-5-hydroxy-1-methyl-3-morpholino-1H-pyrazolo[3,4-b]pyridin-4(7H)-one]
78.8% | 77.5% | 0.05 to 0.1 µM | CCn1nc(C)c2c(=O)c(O)c(-c3c(F)cc(OC)cc3F)[nH]c21 [Example 118, 6-(2,6-Difluoro-4-methoxyphenyl)-1-ethyl-5-hydroxy-3-methyl-1H-pyrazolo[3,4-b]pyridin-4(7H)-one]
66.9% |  | > 0.15 µM | CCn1nc(C)c2c(=O)c(O)c(-c3ccc(N)cc3F)[nH]c21 [Example 119, 6-(4-Amino-2-fluorophenyl)-1-ethyl-5-hydroxy-3-methyl-1,7-dihydro-4H-pyrazolo[3,4-b]pyridin-4-one]
64.8% |  | > 0.15 µM | CCn1nc(C)c2c(=O)c(O)c(-c3ccc(OCCOC)cc3F)[nH]c21 [Example 120, 1-Ethyl-6-[2-fluoro-4-(2-methoxyethoxy)phenyl]-5-hydroxy-3-methyl-1,7-dihydro-4H-pyrazolo[3,4-b]pyridin-4-one]
70.2% |  | > 0.15 µM | CCn1nc(C)c2c(=O)c(O)c(-c3ccc(OCC4CC4)cc3F)[nH]c21 [Example 121, 6-[4-(Cyclopropylmethoxy)-2-fluorophenyl]-1-ethyl-5-hydroxy-3-methyl-1,7-dihydro-4H-pyrazolo[3,4-b]pyridin-4-one]
72.7% | 75.4% | > 0.15 µM | CCn1nc(CC(C)C)c2c(=O)c(O)c(-c3c(F)cccc3F)[nH]c21 [Example 122, 6-(2,6-Difluorophenyl)-1-ethyl-5-hydroxy-3-(2-methylpropyl)-1,7-dihydro-4H-pyrazolo[3,4-b]pyridin-4-one]
75.5% | 76.2% | > 0.15 µM | CCn1nc(C)c2c(=O)c(O)c(-c3c(F)cccc3Cl)[nH]c21 [Example 123, 6-(2-Chloro-6-fluorophenyl)-1-ethyl-5-hydroxy-3-methyl-1,7-dihydro-4H-pyrazolo[3,4-b]pyridin-4-one]
69.3% | 81.9% | > 0.15 µM | Cc1nn(C2CC2)c2[nH]c(-c3c(F)cccc3Cl)c(O)c(=O)c12 [Example 124, 6-(2-Chloro-6-fluorophenyl)-1-cyclopropyl-5-hydroxy-3-methyl-1,7-dihydro-4H-pyrazolo[3,4-b]pyridin-4-one]
58.4% | 66.8% |  | Cc1nn(C2CC2)c2[nH]c(-c3ccccc3Cl)c(O)c(=O)c12 [Example 125, 6-(2-Chlorophenyl)-1-cyclopropyl-5-hydroxy-3-methyl-1,7-dihydro-4H-pyrazolo[3,4-b]pyridin-4-one]
63.4% | 76.3% | > 0.15 µM | Cc1cc(F)ccc1-n1nc(C)c2c(=O)c(O)c(-c3ccccc3Cl)[nH]c21 [Example 126, 6-(2-Chlorophenyl)-1-(4-fluoro-2-methylphenyl)-5-hydroxy-3-methyl-1,7-dihydro-4H-pyrazolo[3,4-b]pyridin-4-one]
87.5% | 89.5% | < 0.05 µM | Cc1nn(C2CCCC2)c2[nH]c(-c3c(F)cccc3F)c(O)c(=O)c12 [Example 127, 1-Cyclopentyl-6-(2,6-difluorophenyl)-5-hydroxy-3-methyl-1,7-dihydro-4H-pyrazolo[3,4-b]pyridin-4-one]
88.1% | 92.1% | 0.05 to 0.1 µM | Cc1nn(C2CCOCC2)c2[nH]c(-c3c(F)cccc3F)c(O)c(=O)c12 [Example 128, 6-(2,6-Difluorophenyl)-5-hydroxy-3-methyl-1-(tetrahydro-2H-pyran-4-yl)-1,7-dihydro-4H-pyrazolo[3,4-b]pyridin-4-one]
85.1% | 74.4% | 0.05 to 0.1 µM | CCn1nc(C)c2c(=O)c(O)c(-c3cc(CNC(=O)C(C)(C)C)ccc3Cl)[nH]c21 [Example 129, N-(4-Chloro-3-(1-ethyl-5-hydroxy-3-methyl-4-oxo-4,7-dihydro-1H-pyrazolo[3,4-b]pyridin-6-yl)benzyl)pivalamide]
69.6% | 98.5% | > 0.15 µM | O=c1c(O)c(-c2ccccc2Cl)[nH]c2c1c(C(F)(F)F)nn2C1CCOCC1 [Example 130, 6-(2-Chlorophenyl)-5-hydroxy-1-(tetrahydro-2H-pyran-4-yl)-3-(trifluoromethyl)-1H-pyrazolo[3,4-b]pyridin-4(7H)-one]
92.4% | 90.2% | < 0.05 µM | Cc1nn(C2CCC2)c2[nH]c(-c3c(F)cccc3F)c(O)c(=O)c12 [Example 131, 1-Cyclobutyl-6-(2,6-difluorophenyl)-5-hydroxy-3-methyl-1H-pyrazolo[3,4-b]pyridin-4(7H)-one]
74.8% | 88.7% | > 0.15 µM | Cn1nc(C(F)(F)F)c2c(=O)c(O)c(-c3cc(CNC(=O)C(C)(C)C)ccc3Cl)[nH]c21 [Example 132, N-(4-Chloro-3-(5-hydroxy-1-methyl-4-oxo-3-(trifluoromethyl)-4,7-dihydro-1H-pyrazolo[3,4-b]pyridin-6-yl)benzyl)pivalamide]
77.3% | 88.8% | > 0.15 µM | Cc1nn(C2CC2)c2[nH]c(-c3cc(CNC(=O)C(C)(C)C)ccc3Cl)c(O)c(=O)c12 [Example 133, N-(4-Chloro-3-(1-cyclopropyl-5-hydroxy-3-methyl-4-oxo-4,7-dihydro-1H-pyrazolo[3,4-b]pyridin-6-yl)benzyl)pivalamide]
57.1% | 88.2% | > 0.15 µM | O=c1c(O)c(-c2c(F)cccc2F)[nH]c2c1c(C(F)(F)F)nn2C1CCOCC1 [Example 134, 6-(2,6-Difluorophenyl)-5-hydroxy-1-(tetrahydro-2H-pyran-4-yl)-3-(trifluoromethyl)-1,7-dihydro-4H-pyrazolo[3,4-b]pyridin-4-one]
71% | 90.7% | > 0.15 µM | Cn1nc(C(F)(F)F)c2c(=O)c(O)c(-c3cc(CNC(=O)C(C)(C)C)ccc3F)[nH]c21 [Example 135, N-(4-Fluoro-3-(5-hydroxy-1-methyl-4-oxo-3-(trifluoromethyl)-4,7-dihydro-1H-pyrazolo[3,4-b]pyridin-6-yl)benzyl)pivalamide]
85% | 87.5% | < 0.05 µM | Cc1nn(C2CCCCC2)c2[nH]c(-c3c(F)cccc3F)c(O)c(=O)c12 [Example 136, 1-Cyclohexyl-6-(2,6-difluorophenyl)-5-hydroxy-3-methyl-1,7-dihydro-4H-pyrazolo[3,4-b]pyridin-4-one]
89.5% | 86.3% | 0.05 to 0.1 µM | Cc1nn(C2CCC(F)(F)CC2)c2[nH]c(-c3c(F)cccc3F)c(O)c(=O)c12 [Example 137, 1-(4,4-Difluorocyclohexyl)-6-(2,6-difluorophenyl)-5-hydroxy-3-methyl-1H-pyrazolo[3,4-b]pyridin-4(7H)-one]
92.6% | 85% | > 0.15 µM | CCn1nc(C)c2c(=O)c(O)c(-c3cc(CNC(=O)C(C)(C)C)ccc3F)[nH]c21 [Example 138, N-(3-(1-Ethyl-5-hydroxy-3-methyl-4-oxo-4,7-dihydro-1H-pyrazolo[3,4-b]pyridin-6-yl)-4-fluorobenzyl)pivalamide]
99% | 100% | 0.05 to 0.1 µM | Cc1nn(-c2ccc(F)cc2Cl)c2[nH]c(-c3c(F)cccc3F)c(O)c(=O)c12 [Example 139, 1-(2-Chloro-4-fluorophenyl)-6-(2,6-difluorophenyl)-5-hydroxy-3-methyl-1H-pyrazolo[3,4-b]pyridin-4(7H)-one]
100% | 100% | 0.05 to 0.1 µM | CCc1nn(C2CC2)c2[nH]c(-c3c(F)cccc3F)c(O)c(=O)c12 [Example 140, 1-Cyclopropyl-6-(2,6-difluorophenyl)-3-ethyl-5-hydroxy-1H-pyrazolo[3,4-b]pyridin-4(7H)-one]
